Reference: publication PMC9420858, “Synthesis, bioactivity, and molecular docking of novel arylpiperazine derivatives as potential AR antagonists” (Frontiers in Chemistry, 2022)
Like-named read-outs stand apart in the source and are kept apart here.

Legend:
RWPE-1 cells = experiment: Cytotoxicity, CCK-8 assay, RWPE-1 normal prostate epithelial cells; format: cell-based; conditions: RWPE-1 normal non-cancer human prostate epithelial cell line, 24 h, mean ± SD of three experiments
Method: (§1) The antiproliferative activity of compounds 5–26 was assessed using the CCK-8 assay ([Chen et al., 2016]; [Chen et al., 2017]; [Chen et al., 2018]; [Han et al., 2020]; [Guo et al., 2021]; [Hu et al., 2022]; [Zhou et al., 2022]). The 96-well plates (1×10^5 cells/mL) were seeded with cells in a medium, the plates were cultured at 37 °C for 24 h, then different concentrations of tested drugs were added, and the plates were cultured for 24 h. After 24 h, 10 μL of CCK-8 solution (5 mg/ml) was added to the wells, and the cells were cultured for 1 h at 37°C. Cell growth inhibition was performed by measuring the absorbance at 450 nm using a microplate reader, and the percentage of cell growth inhibition was then calculated for each tested drug.
(§2) Antiproliferative activity of the novel arylpiperazine derivatives was firstly evaluated against LNCaP cells using the CCK-8 assay. […] Naftopidil and finasteride ([Banday et al., 2014]) were used as control compounds. RWPE-1 cells were used to compare their toxicity. To clarify whether the antiproliferative activity was related to any interference with AR function, the AR antagonist effect was evaluated using the luciferase reporter gene assay. […] The AR luciferase assays were conducted under the co-treatment of 1 nM AR agonist R1881, and the antagonistic activity was measured by inhibiting the R1881-induced luciferase expression.

PC-3 cells = experiment: Antiproliferative activity, CCK-8 assay, PC-3 cells; format: cell-based; conditions: PC-3 human prostate cancer cell line, 24 h, mean ± SD of three experiments
Method: as §1, §2

AR-LBD (GST) = target: T1, AR-LBD (GST) (Rattus norvegicus, UniProt P15207); experiment: AR binding, fluorescence polarization (PolarScreen AR Competitor Assay)
T1 sequence (P15207 651-882 limits assumed): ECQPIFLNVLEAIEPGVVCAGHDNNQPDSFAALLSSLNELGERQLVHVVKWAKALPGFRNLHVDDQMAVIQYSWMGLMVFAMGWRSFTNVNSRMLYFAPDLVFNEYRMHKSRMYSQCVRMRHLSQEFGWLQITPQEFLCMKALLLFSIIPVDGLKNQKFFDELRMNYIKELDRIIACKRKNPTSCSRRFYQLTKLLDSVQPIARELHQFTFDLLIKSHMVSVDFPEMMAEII
Method: Briefly, titrations are performed between the tested compounds and the preformed Fluormone™AL Green and the AR-LBD (GST) complex. The tested mixture was allowed to equilibrate at room temperature in 384-well plates for 4 h. […] Data of the ligand binding assays were analyzed using Prism software (GraphPad Software, Inc.).

LNCaP cells = experiment: Antiproliferative activity, CCK-8 assay, LNCaP cells; format: cell-based; conditions: 24 h, LNCaP human prostate cancer cell line, mean ± SD of three experiments
Method: as §1, §2

[1] = AR binding affinity IC50, fluorescence polarization

| SMILES | melting point [°C] | IC50 (RWPE-1 cells) [µM] | IC50 (PC-3 cells) [µM] | IC50 (AR-LBD (GST)) [µM] | IC50 (AR-LBD (GST); [1]) [µM] | IC50 (LNCaP cells; Homo sapiens, LNCaP) [µM] | IC50 (LNCaP cells) [µM] |
| --- | --- | --- | --- | --- | --- | --- | --- |
| c1ccc(N2CCN(CCc3ccc(COc4ccc5c(c4)CCC5)cc3)CC2)cc1 [Compound 5, 1-(4-((2,3-dihydro-1H-inden-5-yloxy)methyl)phenethyl)-4-phenylpiperazine] | 82.2 to 83.5 | > 50 | > 50 | 1.46 ± 0.24 | < 2 | – | – |
| c1ccc(CN2CCN(CCc3ccc(COc4ccc5c(c4)CCC5)cc3)CC2)cc1 [Compound 6, 1-(4-((2,3-dihydro-1H-inden-5-yloxy)methyl)phenethyl)-4-benzylpiperazine] | 71.1 to 73.3 | 11.6 ± 0.21 | 11.3 ± 0.15 | – | – | 23.45 ± 0.12 | – |
| c1ccc(N2CCN(CCc3ccc(COc4ccc5c(c4)CCC5)cc3)CC2)nc1 [Compound 7, 1-(4-((2,3-dihydro-1H-inden-5-yloxy)methyl)phenethyl)-4-(pyridin-2-yl)piperazine] | 90.1 to 91.8 | 7.68 ± 0.15 | > 50 | – | – | 15.29 ± 0.13 | – |
| Cc1ccccc1N1CCN(CCc2ccc(COc3ccc4c(c3)CCC4)cc2)CC1 [Compound 8, 1-(4-((2,3-dihydro-1H-inden-5-yloxy)methyl)phenethyl)-4-o-tolylpiperazine] | 62.3 to 63.1 | > 50 | > 50 | 2.35 ± 0.09 | < 3 | < 10 | 7.37 ± 0.15 |
| Cc1cccc(N2CCN(CCc3ccc(COc4ccc5c(c4)CCC5)cc3)CC2)c1 [Compound 9, 1-(4-((2,3-dihydro-1H-inden-5-yloxy)methyl)phenethyl)-4-m-tolylpiperazine] | 61.2 to 62.7 | 11 ± 0.16 | > 50 | – | – | 42.68 ± 0.14 | – |
| Cc1ccc(N2CCN(CCc3ccc(COc4ccc5c(c4)CCC5)cc3)CC2)cc1 [Compound 10, 1-(4-((2,3-dihydro-1H-inden-5-yloxy)methyl)phenethyl)-4-p-tolylpiperazine] | 105.1 to 106.3 | 9.24 ± 0.23 | 17.2 ± 0.21 | – | – | 20.9 ± 0.22 | – |
| Cc1ccc(C)c(N2CCN(CCc3ccc(COc4ccc5c(c4)CCC5)cc3)CC2)c1 [Compound 11, 1-(4-((2,3-dihydro-1H-inden-5-yloxy)methyl)phenethyl)-4-(2,5-dimethylphenyl)piperazine] | 70.4 to 71.5 | > 50 | 4.31 ± 0.13 | – | – | > 50 | – |
| COc1ccccc1N1CCN(CCc2ccc(COc3ccc4c(c3)CCC4)cc2)CC1 [Compound 12, 1-(4-((2,3-dihydro-1H-inden-5-yloxy)methyl)phenethyl)-4-(2-methoxyphenyl)piperazine] | 77.3 to 78.5 | > 50 | 25.62 ± 0.17 | 2.53 ± 0.15 | < 3 | < 10 | 8.12 ± 0.11 |
| CCOc1ccccc1N1CCN(CCc2ccc(COc3ccc4c(c3)CCC4)cc2)CC1 [Compound 13, 1-(4-((2,3-dihydro-1H-inden-5-yloxy)methyl)phenethyl)-4-(2-ethoxyphenyl)piperazine] | 65.2 to 66.1 | > 50 | > 50 | – | – | > 50 | – |
| COc1cccc(N2CCN(CCc3ccc(COc4ccc5c(c4)CCC5)cc3)CC2)c1 [Compound 14, 1-(4-((2,3-dihydro-1H-inden-5-yloxy)methyl)phenethyl)-4-(3-methoxyphenyl)piperazine] | 74.2 to 75.4 | > 50 | 0.87 ± 0.12 | 2.62 ± 0.25 | – | – | – |
| COc1ccc(N2CCN(CCc3ccc(COc4ccc5c(c4)CCC5)cc3)CC2)cc1 [Compound 15, 1-(4-((2,3-dihydro-1H-inden-5-yloxy)methyl)phenethyl)-4-(4-methoxyphenyl)piperazine] | 78.1 to 79.3 | 21.7 ± 0.23 | 8.94 ± 0.21 | 2.85 ± 0.65 | – | < 10 | 9.72 ± 0.13 |
| Fc1ccccc1N1CCN(CCc2ccc(COc3ccc4c(c3)CCC4)cc2)CC1 [Compound 16, 1-(4-((2,3-dihydro-1H-inden-5-yloxy)methyl)phenethyl)-4-(2-fluorophenyl)piperazine] | 64.2 to 65.3 | > 50 | > 50 | – | – | 18.56 ± 0.17 | – |
| Fc1ccc(N2CCN(CCc3ccc(COc4ccc5c(c4)CCC5)cc3)CC2)cc1 [Compound 17, 1-(4-((2,3-dihydro-1H-inden-5-yloxy)methyl)phenethyl)-4-(4-fluorophenyl)piperazine] | 79.8 to 80.5 | > 50 | 1.45 ± 0.17 | – | – | 17.92 ± 0.13 | – |
| Fc1ccc(N2CCN(CCc3ccc(COc4ccc5c(c4)CCC5)cc3)CC2)c(F)c1 [Compound 18, 1-(4-((2,3-dihydro-1H-inden-5-yloxy)methyl)phenethyl)-4-(2,4-difluorophenyl)piperazine] | 86.1 to 86.5 | > 50 | 1.92 ± 0.24 | – | – | 10.7 ± 0.14 | – |
| Clc1ccccc1N1CCN(CCc2ccc(COc3ccc4c(c3)CCC4)cc2)CC1 [Compound 19, 1-(4-((2,3-dihydro-1H-inden-5-yloxy)methyl)phenethyl)-4-(2-chlorophenyl)piperazine] | 91.4 to 92.1 | 32.67 ± 0.14 | > 50 | 2.06 ± 0.21 | < 3 | < 10 | 6.87 ± 0.06 |
| Clc1cccc(N2CCN(CCc3ccc(COc4ccc5c(c4)CCC5)cc3)CC2)c1 [Compound 20, 1-(4-((2,3-dihydro-1H-inden-5-yloxy)methyl)phenethyl)-4-(3-chlorophenyl)piperazine] | 83.2 to 84.3 | > 50 | 1.56 ± 0.14 | – | – | 16.98 ± 0.15 | – |
| Clc1ccc(N2CCN(CCc3ccc(COc4ccc5c(c4)CCC5)cc3)CC2)cc1 [Compound 21, 1-(4-((2,3-dihydro-1H-inden-5-yloxy)methyl)phenethyl)-4-(4-chlorophenyl)piperazine] | 117.2 to 118.6 | > 50 | > 50 | 0.65 ± 0.08 | < 2 | – | – |
| Clc1cccc(N2CCN(CCc3ccc(COc4ccc5c(c4)CCC5)cc3)CC2)c1Cl [Compound 22, 1-(4-((2,3-dihydro-1H-inden-5-yloxy)methyl)phenethyl)-4-(2,3-dichlorophenyl)piperazine] | 77.2 to 78.4 | > 50 | 23.48 ± 0.23 | 2.47 ± 0.11 | < 3 | < 10 | 6.32 ± 0.14 |
| Cc1ccc(Cl)cc1N1CCN(CCc2ccc(COc3ccc4c(c3)CCC4)cc2)CC1 [Compound 23, 1-(4-((2,3-dihydro-1H-inden-5-yloxy)methyl)phenethyl)-4-(5-chloro-2-methylphenyl)piperazine] | 87.4 to 88.3 | > 50 | 0.95 ± 0.14 | – | – | 12.6 ± 0.22 | – |
| Brc1ccc(N2CCN(CCc3ccc(COc4ccc5c(c4)CCC5)cc3)CC2)cc1 [Compound 24, 1-(4-((2,3-dihydro-1H-inden-5-yloxy)methyl)phenethyl)-4-(4-bromophenyl)piperazine] | 114.1 to 115.2 | > 50 | 2.31 ± 0.23 | – | – | 14.7 ± 0.15 | – |
| FC(F)(F)c1ccccc1N1CCN(CCc2ccc(COc3ccc4c(c3)CCC4)cc2)CC1 [Compound 25, 1-(4-((2,3-dihydro-1H-inden-5-yloxy)methyl)phenethyl)-4-(2-(trifluoromethyl)phenyl)piperazine] | 53.6 to 54.8 | > 50 | > 50 | 1.22 ± 0.15 | < 2 | – | – |
| FC(F)(F)c1ccc(N2CCN(CCc3ccc(COc4ccc5c(c4)CCC5)cc3)CC2)cc1 [Compound 26, 1-(4-((2,3-dihydro-1H-inden-5-yloxy)methyl)phenethyl)-4-(4-(trifluoromethyl)phenyl)piperazine] | 135.3 to 136.5 | > 50 | > 50 | 1.43 ± 0.18 | < 2 | – | – |
| COc1ccccc1N1CCN(CC(O)COc2cccc3ccccc23)CC1 (stereo not shown) [Naftopidil, reference compound] | – | > 50 | 42.1 ± 0.79 | – | – | 22.4 ± 0.61 | – |
